{"source": "paper PMC11697113", "about": "“The Hsc70 system maintains the synaptic SNARE protein SNAP-25 in an assembly-competent state and delays its aggregation [drawing 1]” (The Journal of Biological Chemistry, 2024)", "key": {"Hsc70 [1]": {"molecular_target": "T1, Hsc70 (Homo sapiens, UniProt P11142)", "T1 construct": "6X His-tag (TEV-cleavable) (cleaved yes); made in house; host or cells: E. coli Rosetta (DE3)", "experiment": "Competition binding vs FITC-p5 by fluorescence anisotropy", "details": "Hsc70 5 μM, FITC-p5 50 nM, competitor 0 to 200 μM, phosphate buffer pH 7.4, overnight 4 °C, three independent experiments; for relative affinity for Hsc70: fluorescence anisotropy, comparator LOOPP", "method": "Figure 3 Hsc70 forms complexes with SNAP-25.A, native PAGE of SNAP-25 (10 μM) in the presence and absence of Hsc70 (2 μM). The difference in signal intensity of His-SNAP25 probed with antibody is likely due to altered epitope exposure upon formation of the SNAP-25-Hsc70 complex. B, binding of SNAP-25 (black), SNAP-25 SNN (SNNFR, orange), and SNC (SNCFR, green)) fragments to Hsc70 by competition followed by fluorescence anisotropy. Increasing concentrations of the competitors were added to a complex of Hsc70 (5 μM) and FITC-p5 peptide (50 nM). Error bars represent SDs from three independent experiments.\nTo pin down the regions in SNAP-25 where Hsc70 binds we expressed the individual SNN and SNC fragments of SNAP-25 and tested their ability to compete for Hsc70 binding to an FITC-labeled p5 peptide (ALLLSAPRR).\nFigure 5 SNN and SNC peptides interact with the canonical substrate-binding site of Hsc70.A, ATPase activity of Hsc70 (2 μM) in the absence (gray) and presence of 200 μM SNNP (orange) and SNCP (green) peptides. Error bars represent the SDs from three independent experiments. B, binding of SNAP-25 (black), SNNP (orange), LoopP (blue), and SNCP (green) peptides to Hsc70 followed by competition for FITC-p5 peptide using fluorescence anisotropy. Increasing concentrations of the competitors were added to a complex of Hsc70 (5 μM) and FITC-p5 peptide (50 nM). Error bars represent SDs from three independent experiments. C, structure of the canonical substrate-binding site of human HspA1 (PDB 4po2) illustrating the location of Hsc70 residues Ile 403 and Ile 440 in red and green spheres, respectively (N.B., Hsc70 and HspA1 share […] sequence identity). The SBD is shown in gray, bound substrate in cyan sticks, and the side chain of the residue occupying the 0th position in the chaperone (“anchor residue”) in orange ball and sticks. For better visualization of the substrate-binding site, residues 512 to 613, 405 to 408, and 431 were removed in this illustration of the structure. D, the Ile region of the ^1H-^13 C HMQC spectra of Ile-^13CH3-labeled Hsc70 (40 μM) in the absence (black) and in the presence of unlabeled SNNP (orange) and SNCP (green) peptides (200 μM).\nTo further characterize the binding of the SNAP-25 peptides to Hsc70 we used competition assays as above. Peptides SNNP, LOOPP, and SNCP were titrated against the protein-peptide complex of Hsc70 and FITC-p5 and fluorescence anisotropy was monitored to assess how well the SNAP-25 peptides displaced the model peptide.\nDirect binding between the p5 peptide (QSRLLLSAPRRAA) and Hsc70 was carried out as described previously ([52]). […] Fluorescence anisotropy was measured in a BioTek plate reader (BioTek) with excitation at 485 nm and emission at 516 nm.\nThe measured anisotropy values were converted to fraction bound (fb) using the equation: fb=(r−r0)/(rb−r0) where r is the anisotropy value at any point, r0 is the anisotropy value of FITC-p5 in the absence of Hsc70, and rb is the anisotropy value of FITC-p5 when fully bound to Hsc70. […]\nFor competition assays, the concentrations of Hsc70 and FITC-P5 were kept constant at 5 μM and 50 nM, respectively, and the competitor substrate was titrated from 0 to 200 μM in phosphate buffer. […] Fluorescent anisotropy was measured as described above. […]"}, "Hsc70 [2]": {"molecular_target": "T1, Hsc70", "experiment": "ATPase activity of Hsc70 (malachite green)", "assay_type": "biochemical", "details": "Hsc70 2 μM, peptide 200 μM, 1 mM ATP, HMK buffer, 1 mM DTT, 37 °C, 1 h, malachite green 620 nm; SD, three independent experiments", "text": "Hsp70s consist of an nucleotide-binding domain (NBD) and a substrate-binding domain (SBD). Hsc70 works using an allosteric mechanism whereby substrate binding at the SBD stimulates the ATP hydrolysis rate at the nucleotide-binding domain. The basal ATPase rate of Hsp70 is low, usually about 0.05 ± 0.009 mol Pi/mol protein, and increases when it is stimulated by binding of a peptide to the canonical site in the SBD. We measured the ability of SNAP-25 peptides SNNP and SNCP to stimulate the ATPase rate of Hsc70 (Fig. 5A). SNNP and SNCP binding cause a 1.5-fold increase of the Hsc70 ATPase rate over basal (observed rates upon addition of SNNP and SNCP were 0.089 ± 0.008 and 0.080 ± 0.005, respectively). In order to confirm that peptides are indeed binding at the canonical binding site of Hsc70, we used the V438F mutant that blocks the binding site ([37]). […] The addition of CSPαJ stimulates the ATPase activity of Hsc70 ∼4-fold with and without peptides.\nFigure 5 SNN and SNC peptides interact with the canonical substrate-binding site of Hsc70.A, ATPase activity of Hsc70 (2 μM) in the absence (gray) and presence of 200 μM SNNP (orange) and SNCP (green) peptides. Error bars represent the SDs from three independent experiments. B, binding of SNAP-25 (black), SNNP (orange), LoopP (blue), and SNCP (green) peptides to Hsc70 followed by competition for FITC-p5 peptide using fluorescence anisotropy. Increasing concentrations of the competitors were added to a complex of Hsc70 (5 μM) and FITC-p5 peptide (50 nM). Error bars represent SDs from three independent experiments. […]\nWe performed ATPase assays to observe the activity of Hsc70 in the presence of SNAP25 peptides. […] Absorbance readings were taken at 620 nm using a BioTek plate reader. […]\n(C) ATPase activity of Hsc70 (at 2 μM) in the absence (grey) and presence of 200 μM SNNP (orange) and L(Loop)-SNCP (green) peptides, and in the absence and presence of CSPa-J and CSPa-J/Apg2. The statistical significance was calculated using one-way ANOVA test with Sidak’s multiple comparison and the Hsc70 ATPase activity […]"}}}
{"substance": "EREQMAISGGFIRR [SNCP, peptide … from the LOOP-SNC domain of SNAP-25]", "values": [{"measurement": "relative affinity for Hsc70", "setting": "Hsc70 [1]", "value": "significantly higher affinity than LOOPP"}, {"measurement": "ATPase rate of Hsc70 upon addition of peptide", "setting": "Hsc70 [2]", "value": "0.080 ± 0.005"}]}
{"substance": "RRMLQLVEESK [SNNP, peptide … from the SNN domain of SNAP-25]", "values": [{"measurement": "relative affinity for Hsc70", "setting": "Hsc70 [1]", "value": "significantly higher affinity than LOOPP"}, {"measurement": "ATPase rate of Hsc70 upon addition of peptide", "setting": "Hsc70 [2]", "value": "0.089 ± 0.008"}]}
{"substance": "synaptosomal-associated 25 kDa protein [SNAP-25]", "values": [{"measurement": "competition with p5 peptide for binding to Hsc70", "setting": "Hsc70 [1]; fluorescence anisotropy 485/516 nm", "value": "competed with p5 peptide for binding to Hsc70"}]}
